Key:
rice [1] = assay: Test B preemergence/postemergence greenhouse plant response rating 0 to 10; format: in vivo, Oryza sativa; settings: Rate 200 g/ha, 0 to 10 scale
In short: (§1)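 Test chemicals were sprayed onto freshly planted seed and, concurrently, onto young plants between the one and four leaf stage. After a twelve- to sixteen-day greenhouse period, each species was visually compared with untreated controls.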

purple nutsedge = assay: as above; format: in vivo, Cyperus rotundus; settings: 0 to 10 scale
In short: as §1

chickweed = assay: Test C preemergence/postemergence greenhouse plant response rating 0 to 100; format: in vivo, Stellaria media; settings: POSTEMERGENCE
In short: (§2)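 Compounds in non-phytotoxic solvent applied preemergence to sandy loam one day after planting, postemergence at the 1–4 leaf stage, or to ~2.5 cm floodwater over silt loam.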

velvetleaf = assay: as above; format: in vivo, Abutilon theophrasti
In short: as §2

soybean = assay: Test B preemergence/postemergence greenhouse plant response rating 0 to 10; format: in vivo, Glycine max; settings: 0 to 10 scale
In short: as §1

giant foxtail = assay: Test C preemergence/postemergence greenhouse plant response rating 0 to 100; format: in vivo, Setaria faberii; settings: for Plant response rating, Giant foxtail: 62 g/ha, 0 to 100 scale
In short: as §2

rice [2] = assay: Test C flood test plant response rating 0 to 100; format: in vivo, Oryza sativa
In short: as §2

pigweed = assay: Test C preemergence/postemergence greenhouse plant response rating 0 to 100; format: in vivo, Amaranthusretroflexus; settings: for Plant response rating Pigweed: 62 g/ha, 0 to 100 scale
In short: as §2

cotton = assay: as above; format: in vivo, Gossypium hirsutum; settings: for Plant response rating, Cotton: 62 g/ha, 0 to 100 scale
In short: as §2

## CC(C)Oc1cc(-c2nn3c(c2Br)CCCC3)c(F)cc1Cl [Compound 38]
Rice [1]; POSTEMERGENCE
  Plant response rating, Rice: 6
Rice [1]; PREEMERGENCE
  Plant response rating, Rice: 2
Purple nutsedge; POSTEMERGENCE, Rate 50 g/ha
  Plant response rating, Nutsedge: 3
Purple nutsedge; PREEMERGENCE, Rate 50 g/ha
  Plant response rating, Nutsedge: 0
Purple nutsedge; Rate 200 g/ha, POSTEMERGENCE
  Plant response rating, Nutsedge: 4
Purple nutsedge; Rate 200 g/ha, PREEMERGENCE
  Plant response rating, Nutsedge: 0
chickweed; 62 g/ha, 0 to 100 scale
  Plant response rating, Chickweed: 30
chickweed; Rate 1 g/ha
  Plant response rating (0 to 100), Chickweed: 0
chickweed; Rate 4 g/ha
  Plant response rating (0 to 100), Chickweed: 10
chickweed; Rate 16 g/ha
  Plant response rating (0 to 100), Chickweed: 20
velvetleaf; POSTEMERGENCE, 62 g/ha, 0 to 100 scale
  Plant response rating, Velvetleaf: 90
velvetleaf; POSTEMERGENCE, Rate 1 g/ha
  Plant response rating (0 to 100), Velvetleaf: 10
velvetleaf; POSTEMERGENCE, Rate 4 g/ha
  Plant response rating (0 to 100), Velvetleaf: 10
velvetleaf; PREEMERGENCE, Rate 1 g/ha
  Plant response rating (0 to 100), Velvetleaf: 0
velvetleaf; PREEMERGENCE, Rate 4 g/ha
  Plant response rating (0 to 100), Velvetleaf: 20
velvetleaf; Rate 16 g/ha, POSTEMERGENCE
  Plant response rating (0 to 100), Velvetleaf: 80
velvetleaf; Rate 16 g/ha, PREEMERGENCE
  Plant response rating (0 to 100), Velvetleaf: 100
soybean; POSTEMERGENCE, Rate 50 g/ha
  Plant response rating, Soybean: 5
soybean; PREEMERGENCE, Rate 50 g/ha
  Plant response rating, Soybean: 0
soybean; Rate 200 g/ha, POSTEMERGENCE
  Plant response rating, Soybean: 7
soybean; Rate 200 g/ha, PREEMERGENCE
  Plant response rating, Soybean: 4
Giant foxtail; POSTEMERGENCE
  Plant response rating, Giant foxtail: 50
Giant foxtail; POSTEMERGENCE, Rate 1 g/ha
  Plant response rating (0 to 100), Giant foxtail: 20
Giant foxtail; POSTEMERGENCE, Rate 4 g/ha
  Plant response rating (0 to 100), Giant foxtail: 30
Giant foxtail; PREEMERGENCE
  Plant response rating, Giant foxtail: 0
Giant foxtail; PREEMERGENCE, Rate 1 g/ha
  Plant response rating (0 to 100), Giant foxtail: 0
Giant foxtail; PREEMERGENCE, Rate 4 g/ha
  Plant response rating (0 to 100), Giant foxtail: 0
Giant foxtail; Rate 16 g/ha, POSTEMERGENCE
  Plant response rating (0 to 100), Giant foxtail: 40
Giant foxtail; Rate 16 g/ha, PREEMERGENCE
  Plant response rating (0 to 100), Giant foxtail: 0
Rice [2]; POSTEMERGENCE section, flood test, Rate 1 g/ha
  Plant response rating (0 to 100), Rice Japonica: 0
Rice [2]; POSTEMERGENCE section, flood test, Rate 4 g/ha
  Plant response rating (0 to 100), Rice Japonica: 10
Rice [2]; Rate 16 g/ha, under POSTEMERGENCE head (flood test species)
  Plant response rating (0 to 100), Rice Japonica: 10
Rice [2]; flood test species listed under POSTEMERGENCE, 62 g/ha, 0 to 100 scale
  Plant response rating Rice Japonica: 30
pigweed; POSTEMERGENCE
  Plant response rating Pigweed: 100
pigweed; POSTEMERGENCE, Rate 1 g/ha
  Plant response rating (0 to 100), Pigweed: 10
pigweed; POSTEMERGENCE, Rate 4 g/ha
  Plant response rating (0 to 100), Pigweed: 30
pigweed; PREEMERGENCE
  Plant response rating Pigweed: 100
pigweed; PREEMERGENCE, Rate 1 g/ha
  Plant response rating (0 to 100), Pigweed: 0
pigweed; PREEMERGENCE, Rate 4 g/ha
  Plant response rating (0 to 100), Pigweed: 0
pigweed; Rate 16 g/ha, POSTEMERGENCE
  Plant response rating (0 to 100), Pigweed: 100
pigweed; Rate 16 g/ha, PREEMERGENCE
  Plant response rating (0 to 100), Pigweed: 90
cotton; POSTEMERGENCE
  Plant response rating, Cotton: 100
cotton; POSTEMERGENCE, Rate 1 g/ha
  Plant response rating (0 to 100), Cotton: 60
cotton; POSTEMERGENCE, Rate 4 g/ha
  Plant response rating (0 to 100), Cotton: 80
cotton; PREEMERGENCE
  Plant response rating, Cotton: 0
cotton; PREEMERGENCE, Rate 1 g/ha
  Plant response rating (0 to 100), Cotton: 0
cotton; PREEMERGENCE, Rate 4 g/ha
  Plant response rating (0 to 100), Cotton: 0
cotton; Rate 16 g/ha, POSTEMERGENCE
  Plant response rating (0 to 100), Cotton: 90
cotton; Rate 16 g/ha, PREEMERGENCE
  Plant response rating (0 to 100), Cotton: 0

Source: patent US6358885B1, “Substituted phenylheterocyclic herbicides” (Mississippi State University, priority 1992, dated 2002)
